Data as given in publication PMC6696179, “Structural Optimization and Structure–Activity Relationship of 4-Thiazolidinone Derivatives as Novel Inhibitors of Human Dihydroorotate Dehydrogenase” (Molecules, 2019).
pIC50: −log10 of the molar value.

How the values were obtained:
[1] = target: T1, hDHODH (Homo sapiens, UniProt Q02127); experiment: hDHODH enzyme inhibition assay (DCIP/UQ0, dihydroorotate-initiated); assay type: biochemical; conditions: for inhibition at 10 µM: compound at 10 µM, 10 nM purified hDHODH; for pIC50: three independent tests, determined if inhibition at 10 μM was greater than 50%;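 as to all read-outs here: recombinant hDHODH (Met30–Arg396) in HEPES pH 8.0 buffer with KCl and Triton X-100, reaction started by 500 µM dihydroorotate, inhibition from rate with inhibitor relative to uninhibited rate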
T1 construct: The plasmid pET-19b–hDHODH (Met30-Arg396) was transformed; inferred from the pET-19b vector and from purification on a chelating column with imidazole elution) (N); made in house; host or cells: E. coli BL21 (DE3)
T1 sequence (Q02127 29-395 limits assumed): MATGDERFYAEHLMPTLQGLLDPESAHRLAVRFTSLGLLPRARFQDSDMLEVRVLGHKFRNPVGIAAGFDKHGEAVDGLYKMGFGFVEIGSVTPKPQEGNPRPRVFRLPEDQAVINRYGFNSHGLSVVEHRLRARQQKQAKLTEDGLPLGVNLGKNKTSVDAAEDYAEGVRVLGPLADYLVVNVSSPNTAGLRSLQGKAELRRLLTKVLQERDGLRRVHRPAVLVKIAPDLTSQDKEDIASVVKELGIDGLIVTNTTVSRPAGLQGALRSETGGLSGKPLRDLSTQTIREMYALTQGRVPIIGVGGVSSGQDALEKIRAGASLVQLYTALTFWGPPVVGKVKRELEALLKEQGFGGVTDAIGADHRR
Description: The purified hDHODH was diluted into a final concentration of 10 nM with the assay buffer contained 50 mM HEPES pH 8.0, 150 mM KCl, 0.1% Triton X-100. […] The dihydroorotate was added to a final concentration of 500 μM to initiate the reaction. […] Inhibition rate was calculated from (1-Vi/V0) × 100. For the determination of the IC50 values, eight to nine different concentrations were applied. Each inhibitor concentration point was tested in triplicate. IC50 values were calculated using the sigmoidal fitting option of the program Origin 8.0.

Row | inhibition at 10 µM [1] | pIC50 [1] | melting point | Structure (SMILES)
1 | 58.8% | 5.45 |  | COC(=O)/C(C#N)=C1\SCC(=O)N1c1ccc(-c2ccccc2)cc1F [Compound 10, Methyl (Z)-2-cyano-2-(3-(3-fluoro-[1,1’-biphenyl]-4-yl)-4-oxothiazolidin-2-ylidene)acetate]
2 | 57.6% | 5.22 |  | COC(=O)/C(C#N)=C1\SCC(=O)N1c1ccc(-c2ccccc2C)cc1F [Compound 12, Methyl (Z)-2-cyano-2-(3-(3-fluoro-2’-methyl-[1,1’-biphenyl]-4-yl)-4-oxothiazolidin-2-ylidene)acetate]
3 | 54.7% | 5.18 |  | COC(=O)/C(C#N)=C1\SCC(=O)N1c1ccc(-c2ccccc2OC)cc1F [Compound 13, Methyl (Z)-2-cyano-2-(3-(3-fluoro-2’-methoxy-[1,1’-biphenyl]-4-yl)-4-oxothiazolidin-2-ylidene)acetate]
4 | 63.3% | 5.27 |  | COC(=O)/C(C#N)=C1\SCC(=O)N1c1ccc(-c2cccc(OC)c2)cc1F [Compound 14, Methyl (Z)-2-cyano-2-(3-(3-fluoro-3’-methoxy-[1,1’-biphenyl]-4-yl)-4-oxothiazolidin-2-ylidene)acetate]
5 | 55.4% | 5.16 | 177.1 to 177.3 °C | COC(=O)/C(C#N)=C1\SCC(=O)N1c1ccc(-c2ccc(OC)cc2)cc1F [Compound 15, Methyl (Z)-2-cyano-2-(3-(3-fluoro-4’-methoxy-[1,1’-biphenyl]-4-yl)-4-oxothiazolidin-2-ylidene)acetate]
6 | 53.1% | 5.03 |  | COC(=O)/C(C#N)=C1\SCC(=O)N1c1ccc(-c2cccc(C(F)(F)F)c2)cc1F [Compound 18, Methyl (Z)-2-cyano-2-(3-(3-fluoro-3’-(trifluoromethyl)-[1,1’-biphenyl]-4-yl)-4-oxothiazolidin-2-ylidene) -acetate]
7 | 52% | 5.03 |  | COC(=O)/C(C#N)=C1\SCC(=O)N1c1ccc(Oc2ccccc2)cc1 [Compound 19, Methyl (Z)-2-cyano-2-(4-oxo-3-(4-phenoxyphenyl)thiazolidin-2-ylidene)acetate]
8 | 29.9% | < 5.00 |  | COC(=O)/C(C#N)=C1\SCC(=O)N1c1ccc(OCc2ccccc2C(=O)O)cc1 [Compound 25, (Z)-2-((4-(2-(1-Cyano-2-methoxy-2-oxoethylidene)-4-oxothiazolidin-3-yl)phenoxy)methyl)benzoic acid]

Second part, the molecule before the results:

Row | Structure (SMILES) | inhibition at 10 µM [1] | pIC50 [1] | melting point
9 | COC(=O)/C(C#N)=C1\SCC(=O)N1c1ccc(C(C)(C)C)cc1 [Compound 7] | 79.1% | 5.76 | 
10 | COC(=O)/C(C#N)=C1\SCC(=O)N1c1ccc2ccccc2c1 [Compound 8] | 80.3% | 5.95 | 
11 | COC(=O)/C(C#N)=C1\SCC(=O)N1c1ccc(-c2ccccc2)cc1 [Compound 9, Methyl (Z)-2-(3-([1,1’-biphenyl]-4-yl)-4-oxothiazolidin-2-ylidene)-2-cyanoacetate] | 73.8% | 5.88 | 
12 | COC(=O)/C(C#N)=C1\SCC(=O)N1c1c(F)cc(-c2ccccc2)cc1F [Compound 11, Methyl (Z)-2-cyano-2-(3-(3,5-difluoro-[1,1’-biphenyl]-4-yl)-4-oxothiazolidin-2-ylidene)acetate] | 33.9% | < 5.00 | 
13 | COC(=O)/C(C#N)=C1\SCC(=O)N1c1ccc(OCc2ccccc2)cc1 [Compound 24, Methyl (Z)-2-(3-(4-(benzyloxy)phenyl)-4-oxothiazolidin-2-ylidene)-2-cyanoacetate] | 55.4% | 5.36 | 
14 | COC(=O)/C(C#N)=C1\SCC(=O)N1c1ccc(C(=O)NC2CCCCC2)cc1 [Compound 27, Methyl (Z)-2-cyano-2-(3-(4-(cyclohexylcarbamoyl)phenyl)-4-oxothiazolidin-2-ylidene)acetate] | 41.7% | < 5.00 | 
